Reference: ChEMBL document CHEMBL3885881, “DrugMatrix”

Species on record: Rattus norvegicus
Assay: DrugMatrix - Regimen: Daily Repeat
Format: toxicity, organism-based, Sprague-Dawley
Design: regimen Daily Repeat, gender Male, age 6-8 weeks
Details: in vivo, po, route oral GAVAGE, vehicle .5 % CMC; for BASOPHIL / EOSINOPHIL / ERYTHROCYTE COUNT / HEMATOCRIT / HEMOGLOBIN / LEUKOCYTE COUNT / LYMPHOCYTE / MEAN CORPUSCULAR HEMOGLOBIN / MEAN CORPUSCULAR HEMOGLOBIN CONCENTRATION / MEAN CORPUSCULAR VOLUME / NEUTROPHIL / PLATELET COUNT: tissue Blood; for ALANINE AMINOTRANSFERASE / ALBUMIN / ALKALINE PHOSPHATASE / ASPARTATE AMINOTRANSFERASE / BLOOD UREA NITROGEN / CHLORIDE / CHOLESTEROL / CREATINE PHOSPHOKINASE / CREATININE / GLUCOSE / PHOSPHORUS / POTASSIUM / SODIUM / TOTAL BILIRUBIN / TOTAL PROTEIN: tissue Plasma
[1] = 0 mg/kg, 72 h, dose level Control, time 3 day
[2] = 0 mg/kg, 120 h, dose level Control, time 5 day
[3] = 22 mg/kg, 72 h, dose level High, time 3 day
[4] = 22 mg/kg, 120 h, dose level High, time 5 day
[5] = […], 72 h, dose 2.4 mg/Kg, dose level Low, time 3 day
[6] = […], 120 h, dose 2.4 mg/Kg, dose level Low, time 5 day

Cc1nc2n(c(=O)c1CCN1CCC(c3noc4cc(F)ccc34)CC1)CCCC2 [RISPERIDONE]
BASOPHIL [1]: 0%
EOSINOPHIL [1]: 0%
ERYTHROCYTE COUNT [1]: 6.19 x10E6/uL
HEMATOCRIT [1]: 36.94%
HEMOGLOBIN [1]: 14.58 G/DL
LEUKOCYTE COUNT [1]: 11.54 x10E3/uL
LYMPHOCYTE [1]: 84.8%
MEAN CORPUSCULAR HEMOGLOBIN [1]: 23.58 pg
MEAN CORPUSCULAR HEMOGLOBIN CONCENTRATION [1]: 39.44 G/DL
MEAN CORPUSCULAR VOLUME [1]: 59.76 fL
NEUTROPHIL [1]: 13.8%
PLATELET COUNT [1]: 1068.8 x10E3/uL
ALANINE AMINOTRANSFERASE [1]: 38.17 u/L
ALBUMIN [1]: 3.88 G/DL
ALKALINE PHOSPHATASE [1]: 391.33 u/L
ASPARTATE AMINOTRANSFERASE [1]: 69.83 u/L
BLOOD UREA NITROGEN [1]: 15 mg/dL
CHLORIDE [1]: 104.17 MEQ/L
CHOLESTEROL [1]: 72.17 mg/dL
CREATINE PHOSPHOKINASE [1]: 174.33 u/L
CREATININE [1]: 0.58 mg/dL
GLUCOSE [1]: 192.67 mg/dL
PHOSPHORUS [1]: 10.52 mg/dL
POTASSIUM [1]: 6.8 MEQ/L
SODIUM [1]: 149.67 MEQ/L
TOTAL BILIRUBIN [1]: 0.78 mg/dL
TOTAL PROTEIN [1]: 6.28 G/DL
BASOPHIL [2]: 0%
EOSINOPHIL [2]: 0.17%
ERYTHROCYTE COUNT [2]: 6.72 x10E6/uL
HEMATOCRIT [2]: 40.02%
HEMOGLOBIN [2]: 15.83 G/DL
LEUKOCYTE COUNT [2]: 9.5 x10E3/uL
LYMPHOCYTE [2]: 87.17%
MEAN CORPUSCULAR HEMOGLOBIN [2]: 23.57 pg
MEAN CORPUSCULAR HEMOGLOBIN CONCENTRATION [2]: 39.62 G/DL
MEAN CORPUSCULAR VOLUME [2]: 59.55 fL
NEUTROPHIL [2]: 11%
PLATELET COUNT [2]: 1053.67 x10E3/uL
ALANINE AMINOTRANSFERASE [2]: 26.33 u/L
ALBUMIN [2]: 4.02 G/DL
ALKALINE PHOSPHATASE [2]: 316.67 u/L
ASPARTATE AMINOTRANSFERASE [2]: 61.33 u/L
BLOOD UREA NITROGEN [2]: 18.67 mg/dL
CHLORIDE [2]: 108 MEQ/L
CHOLESTEROL [2]: 65.17 mg/dL
CREATINE PHOSPHOKINASE [2]: 161.17 u/L
CREATININE [2]: 0.75 mg/dL
GLUCOSE [2]: 177.33 mg/dL
PHOSPHORUS [2]: 9.72 mg/dL
POTASSIUM [2]: 6.18 MEQ/L
SODIUM [2]: 150.5 MEQ/L
TOTAL BILIRUBIN [2]: 0.68 mg/dL
TOTAL PROTEIN [2]: 6.55 G/DL
BASOPHIL [3]: 0%
EOSINOPHIL [3]: 0%
ERYTHROCYTE COUNT [3]: 6.13 x10E6/uL
HEMATOCRIT [3]: 38.1%
HEMOGLOBIN [3]: 15.27 G/DL
LEUKOCYTE COUNT [3]: 13.67 x10E3/uL
LYMPHOCYTE [3]: 90%
MEAN CORPUSCULAR HEMOGLOBIN [3]: 24.93 pg
MEAN CORPUSCULAR HEMOGLOBIN CONCENTRATION [3]: 40.1 G/DL
MEAN CORPUSCULAR VOLUME [3]: 62.17 fL
NEUTROPHIL [3]: 7.67%
PLATELET COUNT [3]: 999.33 x10E3/uL
ALANINE AMINOTRANSFERASE [3]: 31.33 u/L
ALBUMIN [3]: 3.77 G/DL
ALKALINE PHOSPHATASE [3]: 390.33 u/L
ASPARTATE AMINOTRANSFERASE [3]: 54 u/L
BLOOD UREA NITROGEN [3]: 13.67 mg/dL
CHLORIDE [3]: 103.67 MEQ/L
CHOLESTEROL [3]: 59 mg/dL
CREATINE PHOSPHOKINASE [3]: 158.67 u/L
CREATININE [3]: 0.6 mg/dL
GLUCOSE [3]: 179 mg/dL
PHOSPHORUS [3]: 10.93 mg/dL
POTASSIUM [3]: 6.37 MEQ/L
SODIUM [3]: 148.67 MEQ/L
TOTAL BILIRUBIN [3]: 0.6 mg/dL
TOTAL PROTEIN [3]: 5.97 G/DL
BASOPHIL [4]: 0%
EOSINOPHIL [4]: 0.33%
ERYTHROCYTE COUNT [4]: 6.82 x10E6/uL
HEMATOCRIT [4]: 40.93%
HEMOGLOBIN [4]: 16.13 G/DL
LEUKOCYTE COUNT [4]: 11.33 x10E3/uL
LYMPHOCYTE [4]: 91.67%
MEAN CORPUSCULAR HEMOGLOBIN [4]: 23.67 pg
MEAN CORPUSCULAR HEMOGLOBIN CONCENTRATION [4]: 39.47 G/DL
MEAN CORPUSCULAR VOLUME [4]: 60 fL
NEUTROPHIL [4]: 6.67%
PLATELET COUNT [4]: 1104.33 x10E3/uL
ALANINE AMINOTRANSFERASE [4]: 28.33 u/L
ALBUMIN [4]: 4.03 G/DL
ALKALINE PHOSPHATASE [4]: 320.33 u/L
ASPARTATE AMINOTRANSFERASE [4]: 53.33 u/L
BLOOD UREA NITROGEN [4]: 15.33 mg/dL
CHLORIDE [4]: 106 MEQ/L
CHOLESTEROL [4]: 70 mg/dL
CREATINE PHOSPHOKINASE [4]: 145.33 u/L
CREATININE [4]: 0.63 mg/dL
GLUCOSE [4]: 170.67 mg/dL
PHOSPHORUS [4]: 10.97 mg/dL
POTASSIUM [4]: 6.6 MEQ/L
SODIUM [4]: 151.67 MEQ/L
TOTAL BILIRUBIN [4]: 0.7 mg/dL
TOTAL PROTEIN [4]: 6.6 G/DL
BASOPHIL [5]: 0%
EOSINOPHIL [5]: 0%
ERYTHROCYTE COUNT [5]: 5.99 x10E6/uL
HEMATOCRIT [5]: 36.13%
HEMOGLOBIN [5]: 14.37 G/DL
LEUKOCYTE COUNT [5]: 11.03 x10E3/uL
LYMPHOCYTE [5]: 90%
MEAN CORPUSCULAR HEMOGLOBIN [5]: 23.97 pg
MEAN CORPUSCULAR HEMOGLOBIN CONCENTRATION [5]: 39.77 G/DL
MEAN CORPUSCULAR VOLUME [5]: 60.27 fL
NEUTROPHIL [5]: 9%
PLATELET COUNT [5]: 1243 x10E3/uL
ALANINE AMINOTRANSFERASE [5]: 32 u/L
ALBUMIN [5]: 3.73 G/DL
ALKALINE PHOSPHATASE [5]: 332.67 u/L
ASPARTATE AMINOTRANSFERASE [5]: 58 u/L
BLOOD UREA NITROGEN [5]: 11.33 mg/dL
CHLORIDE [5]: 103.67 MEQ/L
CHOLESTEROL [5]: 65.67 mg/dL
CREATINE PHOSPHOKINASE [5]: 164.67 u/L
CREATININE [5]: 0.6 mg/dL
GLUCOSE [5]: 180.67 mg/dL
PHOSPHORUS [5]: 11.33 mg/dL
POTASSIUM [5]: 6.43 MEQ/L
SODIUM [5]: 148.33 MEQ/L
TOTAL BILIRUBIN [5]: 0.4 mg/dL
TOTAL PROTEIN [5]: 5.8 G/DL
BASOPHIL [6]: 0%
EOSINOPHIL [6]: 0.67%
ERYTHROCYTE COUNT [6]: 6.09 x10E6/uL
HEMATOCRIT [6]: 37.37%
HEMOGLOBIN [6]: 14.97 G/DL
LEUKOCYTE COUNT [6]: 13.13 x10E3/uL
LYMPHOCYTE [6]: 81.67%
MEAN CORPUSCULAR HEMOGLOBIN [6]: 24.6 pg
MEAN CORPUSCULAR HEMOGLOBIN CONCENTRATION [6]: 40.1 G/DL
MEAN CORPUSCULAR VOLUME [6]: 61.4 fL
NEUTROPHIL [6]: 13%
PLATELET COUNT [6]: 1107.33 x10E3/uL
ALANINE AMINOTRANSFERASE [6]: 33.33 u/L
ALBUMIN [6]: 3.8 G/DL
ALKALINE PHOSPHATASE [6]: 344.67 u/L
ASPARTATE AMINOTRANSFERASE [6]: 57.33 u/L
BLOOD UREA NITROGEN [6]: 15.67 mg/dL
CHLORIDE [6]: 102 MEQ/L
CHOLESTEROL [6]: 70.33 mg/dL
CREATINE PHOSPHOKINASE [6]: 148.33 u/L
CREATININE [6]: 0.53 mg/dL
GLUCOSE [6]: 178.67 mg/dL
PHOSPHORUS [6]: 10.7 mg/dL
POTASSIUM [6]: 6.43 MEQ/L
SODIUM [6]: 148.33 MEQ/L
TOTAL BILIRUBIN [6]: 0.47 mg/dL
TOTAL PROTEIN [6]: 6.07 G/DL
